The structures appear in SMILES notation. Counter-ions that a name gives are not always drawn.

Assay [1] has as its target T1, Notch1 (Homo sapiens, UniProt P46531).
T1 construct: pLV[Tet]-Puro-TRE3G>Notch1-ICD; expressed in transfected cells; host or cells: 293A cells
As to the kind of experiment: Notch1 Reporter Assay (CSL-responsive luciferase, doxycycline-induced Notch-ICD in 293A cells). The note with it: 25 ng/mL Dox, 24 h, luciferase normalized to cell viability. In kind it is cell-based. As for the experimental part: 293A cells expressing 1) pCMV-Tet-On 3G, 2) pLV[Tet]-Puro-TRE3G>Notch1-ICD, 3) pLV[Tet]-Puro-TRE3G>Notch2-ICD, 4) pLV[Tet]-Puro-TRE3G>Notch3-ICD, and 5) pCSL-RElement-Luc were used. When Doxycycline is added, the Tet-ON gene activates expression of hNotch1ICD, which together with endogenous NTC components binds to CSL responsive elements (pCSL-RElement-Luc) and expresses luciferase. 1×10^4 cells are plated in 100 μL (96-well format). 24 h later, compounds (10 mM stock in DMSO) are diluted in DMSO to 200×, then added (5 ul into 1 mL) to cell culture media containing 50 ng/mL Dox. This is then added 1:1 to cells. Final DMSO=0.25%, Dox=25 ng/mL. After 24 h, media is discarded, and cells are lysed in passive lysis buffer (Promega). Cells are rocked at room temperature for 15 min and then lysate is divided for luciferase assay (Luciferase Assay System, Promega) and cell viability (CellTiter Glo 2.0, Promega). Raw luciferase is normalized to cell viability, and then scaled to DMSO wells. Results are analyzed and IC50's are determined in GraphPad by nonlinear regression curve fitting (4 parameter) of dose response curves.

For assay [2], the system named is OE33 Esophageal Adenocarcinoma cell line. As to the kind of experiment: OE33 Colony Formation Assay. In kind it is cell-based. The note with it: Homo sapiens, 200 cells/well, compound every 48 hours for 7 days, CellTiter-Glo. As for the experimental part:
OE33 Colony Formation Assay:
The OE33 Esophageal Adenocarcinoma cell line was cultured and plated into 96-well tissue culture plates under sparse conditions (200 cells/well). Test compounds were serially diluted in DMSO and then into culture media (final DMSO concentration=0.1%). Compound/media was then added to cells every 48 hours for a total of 7 days. Clonogenic growth was assessed using the CellTiter-Glo reagent, according to manufacturer (Promega) specifications. Percent inhibition was calculated as the percent of luminescence normalized to control (0.1% DMSO) wells. Nonlinear regression curve fitting was performed using GraphPad Prism software to determine EC50's.

T1 sequence (P46531 1754-2555 limits assumed): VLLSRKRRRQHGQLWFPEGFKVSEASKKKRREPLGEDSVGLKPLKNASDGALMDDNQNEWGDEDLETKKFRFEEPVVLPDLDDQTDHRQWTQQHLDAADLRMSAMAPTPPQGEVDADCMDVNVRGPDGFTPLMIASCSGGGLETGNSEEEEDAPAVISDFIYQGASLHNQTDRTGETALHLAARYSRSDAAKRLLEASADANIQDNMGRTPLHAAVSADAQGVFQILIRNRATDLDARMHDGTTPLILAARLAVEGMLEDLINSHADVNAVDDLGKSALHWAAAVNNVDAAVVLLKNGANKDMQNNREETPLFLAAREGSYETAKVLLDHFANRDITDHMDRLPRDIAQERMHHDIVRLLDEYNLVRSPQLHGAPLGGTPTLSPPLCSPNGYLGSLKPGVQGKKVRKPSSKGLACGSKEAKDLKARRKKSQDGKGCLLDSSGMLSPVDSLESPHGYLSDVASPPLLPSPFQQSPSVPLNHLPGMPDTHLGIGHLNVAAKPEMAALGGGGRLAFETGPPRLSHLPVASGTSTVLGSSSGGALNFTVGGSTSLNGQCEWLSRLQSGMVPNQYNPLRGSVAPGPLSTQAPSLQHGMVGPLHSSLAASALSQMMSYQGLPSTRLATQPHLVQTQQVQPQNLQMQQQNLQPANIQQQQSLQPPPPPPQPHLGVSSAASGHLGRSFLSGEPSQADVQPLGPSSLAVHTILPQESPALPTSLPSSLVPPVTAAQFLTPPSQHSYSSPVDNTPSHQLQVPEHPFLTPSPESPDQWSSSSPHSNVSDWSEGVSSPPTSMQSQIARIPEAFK

Regarding `COc1cc(-c2cc(C(F)(F)F)cc3c2n(C2CC2)c(=O)n3CC(=O)N(C)c2ccc(F)cc2)cc(F)c1OCc1nnc[nH]1` [compound 464, 2-(4-(4-((4H-1,2,4-triazol-3-yl)methoxy)-3-fluoro-5-methoxyphenyl)-3-cyclopropyl-2-oxo-6-(trifluoromethyl)-2,3-dihydro-1H-benzo[d]imidazol-1-yl)-N-(4-fluorophenyl)-N-methylacetamide hydrochloride], in assay [1], the IC50 stood at 1.7 µM. In addition, in assay [2], the EC50 is 1.3 µM.

Regarding `COc1cc(-c2cc(OC(F)(F)F)cc3c2n(C)c(=O)n3CC(=O)Nc2ccc(F)cc2)cc(F)c1OCc1nnc[nH]1` [SSTN-600, 2-(4-(4-((4H-1,2,4-triazol-3-yl)methoxy)-3-fluoro-5-methoxyphenyl)-3-methyl-2-oxo-6-(trifluoromethoxy)-2,3-dihydro-1H-benzo[d]imidazol-1-yl)-N-(4-fluorophenyl)acetamide hydrochloride salt], the IC50 in assay [1] stood at 5.8 µM. This molecule displayed an EC50 in assay [2] of 6.6 µM.

For the molecule `COc1cccc(NC(=O)Cn2c(=O)n(C)c3c(-c4cc(F)c(OCc5nnc[nH]5)c(OC)c4)cc(C(F)(F)F)cc32)c1` [SSTN-492, 2-(4-(4-((4H-1,2,4-triazol-3-yl)methoxy)-3-fluoro-5-methoxyphenyl)-3-methyl-2-oxo-6-(trifluoromethyl)-2,3-dihydro-1H-benzo[d]imidazol-1-yl)-N-(3-methoxyphenyl)acetamide hydrochloride], the IC50 in assay [1] came out at 6.3 µM. For the same molecule, the EC50 in assay [2] was found to be 6.6 µM.

`COc1cc(-c2cc(C(F)(F)F)cc3c2n(C)c(=O)n3CC(=O)Nc2ccc(SC)cc2F)cc(F)c1OCc1nnc[nH]1` [SSTN-500, 2-(4-(4-((4H-1,2,4-triazol-3-yl)methoxy)-3-fluoro-5-methoxyphenyl)-3-methyl-2-oxo-6-(trifluoromethyl)-2,3-dihydro-1H-benzo[d]imidazol-1-yl)-N-(2-fluoro-4-(methylthio)phenyl)acetamide hydrochloride] gave an IC50 in assay [1] of 7.4 µM. The molecule further displayed an EC50 in assay [2] of 2.7 µM.

Molecule `COc1cc(-c2cc(C(F)(F)F)cc3c2n(C)c(=O)n3CC(=O)Nc2ccc(F)cc2F)cc(F)c1OCc1nnc[nH]1` [SSTN-494, 2-(4-(4-((4H-1,2,4-triazol-3-yl)methoxy)-3-fluoro-5-methoxyphenyl)-3-methyl-2-oxo-6-(trifluoromethyl)-2,3-dihydro-1H-benzo[d]imidazol-1-yl)-N-(2,4-difluorophenyl)acetamide hydrochloride] had an IC50 in assay [1] of 12.1 µM. Moreover, in assay [2], the EC50 worked out at 7.1 µM.

In assay [1], `COc1cc(-c2cc(C(F)(F)F)cc3c2n(C)c(=O)n3CC(=O)Nc2ccc(SC)cc2)cc(F)c1OCc1nnc[nH]1` [SSTN-498, 2-(4-(4-((4H-1,2,4-triazol-3-yl)methoxy)-3-fluoro-5-methoxyphenyl)-3-methyl-2-oxo-6-(trifluoromethyl)-2,3-dihydro-1H-benzo[d]imidazol-1-yl)-N-(4-(methylthio)phenyl)acetamide hydrochloride] returned an IC50 of 8.5 µM. The molecule also came in with an EC50 in assay [2] of 3 µM.

The molecule `COc1cc(-c2cc(C(F)(F)F)cc3c2n(C)c(=O)n3CC(=O)Nc2cccc(-c3ccccc3)c2)cc(F)c1OCc1nnc[nH]1` [SSTN-546, 2-(4-(4-((4H-1,2,4-triazol-3-yl)methoxy)-3-fluoro-5-methoxyphenyl)-3-methyl-2-oxo-6-(trifluoromethyl)-2,3-dihydro-1H-benzo[d]imidazol-1-yl)-N-([1,1′-biphenyl]-3-yl)acetamide] yielded an IC50 in assay [1] of 4.2 µM. This molecule also yielded an EC50 in assay [2] of 3.6 µM.

`COc1cc(-c2cc(C(F)(F)F)cc3c2n(C)c(=O)n3CC(=O)Nc2cccc(C(F)(F)F)c2)cc(F)c1OCc1nnc[nH]1` [SSTN-495, 2-(4-(4-((4H-1,2,4-triazol-3-yl)methoxy)-3-fluoro-5-methoxyphenyl)-3-methyl-2-oxo-6-(trifluoromethyl)-2,3-dihydro-1H-benzo[d]imidazol-1-yl)-N-(3-(trifluoromethyl)phenyl)acetamide hydrochloride] came in with a half-maximal inhibitory concentration (IC50) in assay [1] of 4.3 µM. Further, in assay [2], it took 1.5 µM to reach a half-maximal effect (EC50).

In assay [1], `COc1cc(-c2cc(C(F)(F)F)cc3c2n(C)c(=O)n3CC(=O)Nc2ccccc2Cl)cc(F)c1OCc1nnc[nH]1` [SSTN-491, 2-(4-(4-((4H-1,2,4-triazol-3-yl)methoxy)-3-fluoro-5-methoxyphenyl)-3-methyl-2-oxo-6-(trifluoromethyl)-2,3-dihydro-1H-benzo[d]imidazol-1-yl)-N-(2-chlorophenyl)acetamide hydrochloride] displayed an IC50 of 11.1 µM. Further, the midpoint of the response in assay [2], the EC50, lay at 4.6 µM.

`COc1ccccc1NC(=O)Cn1c(=O)n(C)c2c(-c3cc(F)c(OCc4nnc[nH]4)c(OC)c3)cc(C(F)(F)F)cc21` [SSTN-493, 2-(4-(4-((4H-1,2,4-triazol-3-yl)methoxy)-3-fluoro-5-methoxyphenyl)-3-methyl-2-oxo-6-(trifluoromethyl)-2,3-dihydro-1H-benzo[d]imidazol-1-yl)-N-(2-methoxyphenyl)acetamide hydrochloride] showed an IC50 in assay [1] of 8.5 µM. The molecule further yielded an EC50 in assay [2] of 2.4 µM.

`COc1cc(-c2cc(C(F)(F)F)cc3c2n(C)c(=O)n3CC(=O)N(C)c2ccc(Cl)cc2)cc(F)c1OCc1nnc[nH]1` [compound 424, 2-(4-(4-((4H-1,2,4-triazol-3-yl)methoxy)-3-fluoro-5-methoxyphenyl)-3-methyl-2-oxo-6-(trifluoromethyl)-2,3-dihydro-1H-benzo[d]imidazol-1-yl)-N-(4-chlorophenyl)-N-methylacetamide hydrochloride]: the IC50 in assay [1] amounted to 3.6 µM. Further, the EC50 in assay [2] amounted to 1.4 µM.

On to `COc1cc(-c2cc(C(F)(F)F)cc3c2n(C)c(=O)n3CC(=O)Nc2ccc(F)nc2)cc(F)c1OCc1nnc[nH]1` [SSTN-609, 2-(4-(4-((4H-1,2,4-triazol-3-yl)methoxy)-3-fluoro-5-methoxyphenyl)-3-methyl-2-oxo-6-(trifluoromethyl)-2,3-dihydro-1H-benzo[d]imidazol-1-yl)-N-(6-fluoropyridin-3-yl)acetamide], for which the IC50 in assay [1] came to 10.3 µM. It took 18.8 µM to reach a half-maximal effect in assay [2] (EC50).

For the molecule `COc1cc(-c2cc(C(F)(F)F)cc3c2n(C)c(=O)n3CC(=O)Nc2cccc(N3CCN(C)CC3)c2)cc(F)c1OCc1nnc[nH]1` [SSTN-559, 2-(4-(4-((4H-1,2,4-triazol-3-yl)methoxy)-3-fluoro-5-methoxyphenyl)-3-methyl-2-oxo-6-(trifluoromethyl)-2,3-dihydro-1H-benzo[d]imidazol-1-yl)-N-(3-(4-methylpiperazin-1-yl)phenyl)acetamide], in assay [1], the IC50 turned out to be 19.9 µM. Further, in assay [2], the EC50 was 4.3 µM.

In the case of `COc1cc(-c2cc(C(F)(F)F)cc3c2n(C)c(=O)n3CC(=O)N(C)c2cccc(Cl)c2)cc(F)c1OCc1nnc[nH]1` [compound 448, 2-(4-(4-((4H-1,2,4-triazol-3-yl)methoxy)-3-fluoro-5-methoxyphenyl)-3-methyl-2-oxo-6-(trifluoromethyl)-2,3-dihydro-1H-benzo[d]imidazol-1-yl)-N-(3-chlorophenyl)-N-methylacetamide hydrochloride], the IC50 in assay [1] came to 2.4 µM. This molecule also yielded an EC50 in assay [2] of 2.1 µM.

These data come from US20230183215A1, “Notch Inhibitors and Uses Thereof” (StemSynergy Therapeutics, Inc., priority 2020, published 2023).
